Measurements reported in patent US4526892A, “Dimethylaminoalkyl-3-(ergoline-8'βcarbonyl)-ureas” (Farmitalia Carlo Erba, S.p.A., priority 1982, dated 1985).

Assays:
[1] = system: spontaneously hypertensive male rats, strain SHR; assay: Change in heart rate (HR) in SHR rats; type: in vivo, rat
Procedure: (§1) Four spontaneously hypertensive male rats, strain SHR, weighing 250-300 g for each group were used. The animals were treated once a day for four consecutive days. Drugs were administered by gastric gavage, suspended in 5% gum arabic (0.2 ml/100 g body weight) and blood pressure (BP) and heart rate (HR) were measured by indirected tail/cuff method (BP Recorder W+W). Blood pressure and heart rate were measured on the first and fourth days of treatment 1 hour before and 1 and 5 hours after drug administration. Hydralazine and α-methyl-Dopa were used as reference drugs.

[2] = system: spontaneously hypertensive male rats, strain SHR; assay: Anti-hypertensive activity: change in blood pressure (BP) in SHR rats; type: in vivo, rat; details: for Hypotensive activity vs Hydralazine: compound 25 mg/kg vs Hydralazine 5 mg/kg; for Tolerance on the 4th day: compound 25 mg/kg, unlike Hydralazine
Procedure: as §1

[3] = system: mice; assay: Acute toxicity: orientative toxicity in mice; type: in vivo, mouse; details: per os, observed for seven days
Source text: The male mice for each group were orally treated with drugs at different dose levels for the determination of orientative toxicity.

[4] = system: mice; details: per os, data of LD50 from the literature; cited from earlier work
[5] = 5 mg/kg os, 1st day, 1 hour after dosing
[6] = 5 mg/kg os, 1st day, 5 hours after dosing
[7] = 5 mg/kg os, 4th day, 1 hour after dosing
[8] = 5 mg/kg os, 4th day, 5 hours after dosing
[9] = 25 mg/kg os, 1st day, 1 hour after dosing
[10] = 25 mg/kg os, 1st day, 5 hours after dosing
[11] = 25 mg/kg os, 4th day, 1 hour after dosing
[12] = 25 mg/kg os, 4th day, 5 hours after dosing
[13] = 30 mg/kg os, 1st day, 1 hour after dosing
[14] = 30 mg/kg os, 1st day, 5 hours after dosing
[15] = 30 mg/kg os, 4th day, 1 hour after dosing
[16] = 30 mg/kg os, 4th day, 5 hours after dosing
[17] = 100 mg/kg os, 1st day, 1 hour after dosing
[18] = 100 mg/kg os, 1st day, 5 hours after dosing
[19] = 100 mg/kg os, 4th day, 1 hour after dosing
[20] = 100 mg/kg os, 4th day, 5 hours after dosing

SMILES	Change in HR [1, 5]	Change in HR [1, 6]	Change in HR [1, 7]	Change in HR [1, 8]	Change in HR [1, 9]	Change in HR [1, 10]	Change in HR [1, 11]	Change in HR [1, 12]	Change in BP [2, 5]	Change in BP [2, 6]	Change in BP [2, 7]	Change in BP [2, 8]	Change in BP [2, 9]	Change in BP [2, 10]	Change in BP [2, 11]	Change in BP [2, 12]	Effect on BP (in words) ([2]; 25 mg/kg, 1st and 4th days)	Hypotensive activity vs Hydralazine [2]	Tolerance on the 4th day [2]	Orientative toxicity in mice [3]	also measured
CN1C[C@H](C(=O)N(C(=O)NC2CCCCC2)C2CCCCC2)C[C@@H]2c3cccc4[nH]cc(c34)C[C@H]21 [Example 7, 1,3-dicyclohexyl-3-(6'-methylergoline-8'β-carbonyl)urea]	0 beats/minute	-10 beats/minute	0 beats/minute	0 beats/minute	+5 beats/minute	-20 beats/minute	-17 beats/minute	-2 beats/minute	-12 mmHg	-10 mmHg	-15 mmHg	-7 mmHg	-30 mmHg	-57 mmHg	-30 mmHg	-10 mmHg	significant decrease BP	comparable to that of Hydralazine	no tolerance on the 4th day	> 800 mg/kg	Effect on BP (in words) ([2]; 5 mg/kg): the antihypertensive effect was less remarkable
CO[C@]12C[C@@H](C(=O)N(C(=O)NC3CCCCC3)C3CCCCC3)CN(C)[C@@H]1Cc1c[nH]c3cccc2c13 [Example 9, 1,3-dicyclohexyl-3-(10'α-methoxy-6'-methylergoline-8'β-carbonyl)-urea]	–	–	–	–	-20 beats/minute	-10 beats/minute	0 beats/minute	-20 beats/minute	–	–	–	–	-30 mmHg	-37 mmHg	-5 mmHg	-23 mmHg	–	comparable to that of Hydralazine	no tolerance on the 4th day	> 800 mg/kg	Effect on BP (in words) ([2]; 25 mg/kg, 1st day): marked decrease of BP; Effect on BP (in words) ([2]; 25 mg/kg, 4th day, first hour after dosing): the hypotensive effect was still observed on the fourth day even if less remarkable
CO[C@]12C[C@@H](C(=O)N(C(=O)NC3CCCCC3)C3CCCCC3)CN(C)[C@@H]1Cc1cn(C)c3cccc2c13 [Example 10, 1,3-dicyclohexyl-3-(10'α-methoxy-1',6'-dimethylergoline-8'β-carbonyl)-urea]	-5 beats/minute	-20 beats/minute	-20 beats/minute	+15 beats/minute	-2 beats/minute	-12 beats/minute	-17 beats/minute	-20 beats/minute	-11 mmHg	-22 mmHg	-15 mmHg	-16 mmHg	-26 mmHg	-41 mmHg	-51 mmHg	-40 mmHg	–	comparable to that of Hydralazine	no tolerance on the 4th day	> 800 mg/kg	Effect on BP (in words) ([2]; os, all tested doses of the compound): a decrease of BP was observed; this effect was long lasting
C=CCN1C[C@H](C(=O)N(C(=O)NC2CCCCC2)C2CCCCC2)C[C@@H]2c3cccc4[nH]cc(c34)C[C@H]21 [Example 15, 1,3-dicyclohexyl-3-(6'-allylergoline-8'β-carbonyl)-urea]	–	–	–	–	-20 beats/minute	-20 beats/minute	-27 beats/minute	-10 beats/minute	–	–	–	–	-35 mmHg	-27 mmHg	-47 mmHg	-38 mmHg	decrease in BP both on the 1st and 4th days of treatment but more pronounced on the 4th day	–	–	> 800 mg/kg	Hypotensive activity vs Hydralazine ([2]; 4th day): much more remarkable; Hypotensive activity vs Hydralazine ([2]; first day): comparable to that of Hydralazine
C[C@](N)(Cc1ccc(O)c(O)c1)C(=O)O [α-methyl-Dopa, reference compound]	–	–	–	–	–	–	–	–	–	–	–	–	–	–	–	–	–	–	–	–	Change in HR [1, 13]: +35 beats/minute; Change in HR [1, 14]: +40 beats/minute; Change in HR [1, 15]: +45 beats/minute; Change in HR [1, 16]: +30 beats/minute; Change in HR [1, 17]: +70 beats/minute; Change in HR [1, 18]: +40 beats/minute; Change in HR [1, 19]: +50 beats/minute; Change in HR [1, 20]: +10 beats/minute; Effect on HR (in words) ([1]; SHR rats, os): increase of HR; Change in BP [2, 13]: -10 mmHg; Change in BP [2, 14]: -20 mmHg; Change in BP [2, 15]: -10 mmHg; Change in BP [2, 16]: 0 mmHg; Change in BP [2, 17]: -10 mmHg; Change in BP [2, 18]: -25 mmHg; Change in BP [2, 19]: -20 mmHg; Change in BP [2, 20]: -25 mmHg; LD50 (orientative toxicity column) [4]: 5300 mg/kg
